The subject of data set [1] is P. aeruginosa (ATCC 9027). In words: Protocol 3 time-dependent antimicrobial activity at one dose level. Format: cell-based, Pseudomonas aeruginosa. On the procedure: The objective of this protocol is to establish a procedure for determining the antimicrobial activity of indolicidin (e.g., L-IND) at 50 μg/ml over an extended exposure time up to 24 hours at room temperature. It is believed that this procedure more closely mimics the recommended use of lens-care products.
Exposure of the test organism to indolicidin occurs in a buffered solution for up to 24 hours with sampling for viability at different time intervals. Polypropylene 96-well microtiter plates and microcentrifuge tubes are used for exposure and dilution of indolicidin, respectively.
The following materials are used: sterile glass tubes containing 5 ml of Mueller-Hinton Broth (MHB), Mueller-Hinton agar plates, sterile 96-well polypropylene microtiter plates, and sterile polypropylene microcentrifuge tubes.
One or more of the following microorganisms are used in assays using this protocol or modification of this protocol: Pseudomonas aeruginosa (ATCC 9027), Pseudomonas aeruginosa (ATCC 27853), and S. aureus (ATCC 6538).
Five 5 ml of MHB tubes are innoculated with the tester strain(s) from MHA plates and grown overnight at 37° C. on a shaker (180 rpm). A micropipet tip is prewet for at least 2 minutes with 100 μl of the stock solution of indolicidin (e.g., L-IND). The test article is dispensed back in the stock solution vial and the pipette is reset to a volume of 10 μl. Polypropylene microcentrifuge tubes are used to dilute the stock of indolicidin (10 mg/ml) 10-fold in sterile water. To obtain a 10× solution of indolicidin with a dose level equivalent to 50 μg/ml dose level dilute 10 μl of the stock solution of indolicidin in 90 μl of sterile water. (The concentration of indolicidin in the final exposure volume of […] will be 5 μg when 10 μl of the 10× solution is added to 100 μl of bacterial suspension). The overnight cultures are washed twice in sterile saline and resuspend in appropriate buffer. The washed culture is diluted in the appropriate buffer to give an estimated 10^6 CFU/ml. Then 10 μl of the 10× test peptide dilutions are added to a predetermined number of wells in the polypropylene microtiter plate. 100 μl of the bacterial suspension is dispensed to the wells in the polypropylene microtiter plate containing the test chemical and mixed well. Controls include one well each for negative controls, i.e., bacteria only sampled at the initiation of the experiment and at the completion of the experiment. The microtiter plate is covered with aluminum foil to shield the exposure mixture from direct light and placed on the bench top at room temperature. At the end of each time interval, the mixture is diluted in an appropriate sterile buffer and plated for viable counts.
Survival is determined by counting the colonies appearing on plates after overnight incubation at 37° C. The results are expressed as CFU/ml and survival is expressed as the percent of the bacteria that survived the treatment.
The purpose of this experiment was to repeat Experiment 4 under identical conditions using P. aeruginosa 9027, with the exception of one additional time point of 60 minutes. The culture was washed 2 times in 10 mM sodium phosphate buffer, pH 7.4.
Protocol 3 was used with the modifications described above. The test organism was P. aeruginosa 9027. L-indolicidin was tested at 50 μg/ml only. Sterile water was used as a solvent for L-IND. 10 mM sodium phosphate buffer, pH 7.4 was used as a vehicle for exposure of bacteria to L-IND. Final incubation volume in polypropylene microtiter plates was 110 μl, and incubation times were 0, 1, 2, 5 and 15 and 60 minutes at room temperature.
This experiment was a repeat of Experiment 6 using the same exposure protocol, but with a prolonged exposure time, namely 24 hours, and using washed cells of an 18-hour old overnight culture of P. aeruginosa inoculated in Mueller-Hinton broth. Incubation times were 0 and 24 hours, at room temperature. […]

A further data set concerns S. aureus ATCC 6538. Kind of data set: Long-term (8 month) stability in commercial container (Rite-Aid) by S. aureus bioassay. In kind it is cell-based, Staphylococcus aureus. Particulars: 50 μg/ml; for log kill: 4 hours exposure; for stability: 8 months. As for the experimental part: Long term stability of indolicidin was evaluated in a commercial container (Rite-Aid). The L-indolicidin concentration was 50 μg/ml formulated in a 10 mM sodium phosphate buffer, pH 7.4, with and without 0.85% sodium chloride. The test organism was S. aureus ATCC 6538. Sampling time was 0, 1, 2, 3, 4 and 8 months. The exposure time of the test organism was 0 and 4 hours.

In the case of `CC[C@H](C)[C@H](N)C(=O)N[C@@H](CC(C)C)C(=O)N1CCC[C@H]1C(=O)N[C@@H](Cc1c[nH]c2ccccc12)C(=O)N[C@@H](CCCCN)C(=O)N[C@@H](Cc1c[nH]c2ccccc12)C(=O)N1CCC[C@H]1C(=O)N[C@@H](Cc1c[nH]c2ccccc12)C(=O)N[C@@H](Cc1c[nH]c2ccccc12)C(=O)N1CCC[C@H]1C(=O)N[C@@H](Cc1c[nH]c2ccccc12)C(=O)N[C@@H](CCCNC(=N)N)C(=O)N[C@@H](CCCNC(=N)N)C(N)=O` [L-indolicidin, H2N-ILPWKWPWWPWRR-CONH2], the survival in data set [1] (50 μg/ml, 10 mM sodium phosphate buffer, 1, 2 and 5 minutes, room temperature) is 100%; in data set [1] (50 μg/ml, 10 mM sodium phosphate buffer, 15 minutes), 19%; in data set [1] (50 μg/ml, 10 mM sodium phosphate buffer, 24 hours, room temperature), “no apparent survival”; in data set [1] (50 μg/ml, 10 mM sodium phosphate buffer, exposure time 0 hr), 1.2 × 10^6 CFU/ml; in data set [1] (50 μg/ml, 10 mM sodium phosphate buffer, exposure time 1 hr), 6.5 × 10^5 CFU/ml; in data set [1] (50 μg/ml, 10 mM sodium phosphate buffer, exposure time 2 hr) it was 1.1 × 10^4 CFU/ml. For the same compound, the survival is listed as 0 CFU/ml in data set [1] (50 μg/ml, 10 mM sodium phosphate buffer, exposure time 4 hr); 0 CFU/ml in data set [1] (50 μg/ml, 10 mM sodium phosphate buffer, exposure time 6 hr); 0 CFU/ml in data set [1] (50 μg/ml, 10 mM sodium phosphate buffer, exposure time 12 hr); 100% in data set [1] (50 μg/ml, 10 mM sodium phosphate buffer, up to 15 minutes); “no survival” in data set [1] (50 μg/ml, 100 mM sodium phosphate buffer pH 7.4, all time points 0-24 hours); “no detectable survival” in data set [1] (50 μ/ml, 10 mM sodium phosphate buffer, after 4 hours exposure). In data set [1] (50 μg/ml, 10 mM sodium phosphate buffer, 60 min), the survival reduction is given as about 2 logs. In data set [1] (50 μg/ml, 10 mM sodium phosphate buffer, as early as after 1 minute exposure, initial 2.0×10^6 CFU/ml), the log cell reduction is about 6 log. The viability decrease result in data set [1] (50 μg/ml, 100 mM sodium phosphate buffer, 1 and 2 minutes) is reported as “about 1 log”. For the same compound, the colonies on plates result in data set [1] (50 μg/ml, 100 mM sodium phosphate buffer, 15 and 60 minutes) is recorded as “No colonies”. Besides, the “colonies on plate seeded with 0.1 ml undiluted exposure mixture” value in data set [1] (50 μg/ml, 100 mM sodium phosphate buffer, 5 minutes) is on record as 34 colonies. Besides, the “Bacterial growth, Buffer and L-indolicidin 50 μg/ml” value in data set [1] (100 mM sodium phosphate buffer, incubation time 0 hr) was determined as 0; in data set [1] (100 mM sodium phosphate buffer, incubation time 24 hr), 0. Also, the log kill in the data set on S. aureus ATCC 6538 (10 mM SP pH 7.4, over 8 months) is recorded as about 4 log; with S. aureus ATCC 6538 (10 mM SP with 0.85% NaCl, over 8 months), about 1 log. Also, the stability with S. aureus ATCC 6538 (10 mM SP with NaCl) and in the data set with S. aureus ATCC 6538 (10 mM SP) was 100% throughout.
